Consider two compounds from patent US11382894B2, “Pharmaceutical compositions for use in the treatment of cardiovascular calcification” (INSERM (INSTITUT NATIONAL DE LA SANTE ET DE LA RECHERCHE …, priority 2017, dated 2022).

Experiment [1] has as its system Rat aortic rings. In words: Calcium content of rat aortic rings cultured ex vivo in procalcifying conditions (O-Cresolphthalein colorimetric assay). The format is cell-based. The following applies: Pi 3.8 mM, 7 days; for Effect on calcium content of rat aortas (in words): procalcifying conditions; for Aortic calcium content: Pi alone = 100%. How it is done: Materials and methods: Rat aortic rings were cultured in procalcifying conditions using inorganic phosphate (Pi: 3.8 mM) for 7 days. […] Rat aortic calcium content was determined using a calcium colorimetric assay with O-Cresolphthalein.
Materials and methods: Rat aortic rings were cultured in procalcifying conditions using inorganic phosphate (Pi: 3.8 mM) for 7 days. N-acetyl-S-farnesyl-L-cysteine (AFC)—sEH phosphatase domain inhibitor—was added at concentrations, ranging from 0.1 to 10 μM (n=4-21 per group). Rat aortic calcium content was determined using a calcium colorimetric assay with O-Cresolphthalein.
Materials and methods: Rat aortic rings were cultured in procalcifying conditions using inorganic phosphate (Pi: 3.8 mM) for 7 days in absence and in presence of ebselen at a concentration of 1 and 10 μM (n=6-8 per group).

For experiment [2], the system named is Human valvular interstitial cells (VICs). As to the kind of experiment: Calcium content of human valvular interstitial cells cultured in procalcifying conditions (O-Cresolphthalein colorimetric assay). The format is cell-based. The following applies: Pi 3 mM; for VICs calcium content: mean±SEM; for Effect on calcium content of valvular interstitial cells (in words): procalcifying conditions. How it is done:
Materials and methods: Human valvular interstitial cells (VICs) were cultured in procalcifying conditions using inorganic phosphate (Pi: 3 mM) for 14 days. N-acetyl-S-farnesyl-L-cysteine (AFC)—sEH phosphatase domain inhibitor—was added at concentrations, ranging from 0.1 to 5 μM (n=5-6 per group). VICs aortic calcium content was determined using a calcium colorimetric assay with O-Cresolphthalein.
Materials and methods: Human valvular interstitial cells (VICs) were cultured in procalcifying conditions using inorganic phosphate (Pi: 3 mM) for 10 days. Ebselen—sEH phosphatase domain inhibitor—was added at the concentrations of 0.1 and 1 μM (n=4 per group). VICs aortic calcium content was determined using a calcium colorimetric assay with O-Cresolphthalein.

[3] abbreviates: rat aortic rings, compound 1 μM.
Setting [4] is: rat aortic rings, compound 10 μM.

The structures appear in SMILES notation.

Take `O=c1c2ccccc2[se]n1-c1ccccc1` [ebselen]: the “Effect on calcium content of rat aortas (in words)” value in experiment [1] is listed as “dose-dependently reduces”. Moreover, the Aortic calcium content in experiment [1] (setting [3]) is on record as 77±8%; in experiment [1] (setting [4]), 62±7%. Further, the VICs calcium content came to 88.8±11% in experiment [2] (human VICs, 10 days, compound 0.1 μM, Pi alone = 100%) and 67.6±7.2% in experiment [2] (human VICs, 10 days, compound 1 μM, Pi alone = 100%). Further, in experiment [2] (10 days), the “Effect on calcium content of valvular interstitial cells (in words)” value is “dose-dependently reduces”.
Turning to `CC(=O)N[C@@H](CSC/C=C(\C)CC/C=C(\C)CCC=C(C)C)C(=O)O` [AFC, N-acetyl-S-farnesyl-L-cysteine], the “Effect on calcium content of rat aortas (in words)” value in experiment [1] is listed as “dose-dependently reduces”. In experiment [1] (rat aortic rings), the “Alizarin Red and VonKossa histochemical staining” value is recorded as “confirmed these results”. Further, the Aortic calcium content was 83.6±9.1% in experiment [1] (rat aortic rings, compound 0.1 μM); 74.2±2.9% in experiment [1] (setting [3]); 54.5±12% in experiment [1] (setting [4]). Moreover, the “Alizarin Red staining” value in experiment [2] (human VICs, 14 days) is listed as “confirmed these results”. Moreover, the VICs calcium content in experiment [2] (human VICs, 14 days, compound 0.1 μM, Pi alone 90.3±4.6 μg) came out at 76.7 ± 5.7 µg; in experiment [2] (human VICs, 14 days, compound 1 μM, Pi alone 90.3±4.6 μg), 51.1 ± 2.9 µg; in experiment [2] (human VICs, 14 days, compound 5 μM, Pi alone 90.3±4.6 μg), 45.8 ± 2 µg. Moreover, in experiment [2] (14 days), the “Effect on calcium content of valvular interstitial cells (in words)” value is listed as “dose-dependently reduces”.
